From patent US7488476B2, “B-cell epitope peptides of HSP 65, DNA encoding said peptides, antibodies directed against said peptides and the different uses thereof in the treatment of inflammatory and autoimmune diseases” (priority 1998, dated 2009)

Key:
rat immunoglobulins [1] = experiment: ELISA: antibodies of rat sera to Mycobacterial HSP 65 and its peptides; format: binding
rat immunoglobulins [2] = experiment: Dot-Blot of rat immunoglobulins with synthetic HSP peptides; format: binding
Method: Dot Blots assay: Antigens were dissolved in PBS and samples of 1 μg were adsorbed on Nitrocellulose paper. The paper was air-dried and incubated with BSA 1% in PBS for 20 min. to block non-specific binding. The samples were then washed in PBS-Tween 0.05% and incubated with rat sera diluted 1:100 in BSA-PBS, for 90 min. at room temp. Samples were washed and incubated with goat anti rat antibody conjugated to alkaline phosphatase diluted 1:1000 in BSA-PBS for 90 min. at RT. After re-washing the color reaction was developed by adding a mixture of BCIP-NBT (Sigma-Fast, Sigma) to the […] for 15 min. The reaction was stopped by the addition of tap water.
To define the epitopes recognized by the anti bacterial HSP antibodies, the inventors tested by Dot-Blot the interaction of immunoglobulins from naive young BN rats and post AA Lewis rats with 90 16-mer synthetic peptides of the Mycobacterial 65 KD HSP. Immunoglobulins from naive young Lewis rats served as control.
(§1) Immunoglobulins from naive Lewis and BN rats and post-AA Lewis rats were tested for binding to 38 synthetic 20-mer peptides of the mammalian HSP 60 by Dot-Blot. […] Quantitative analysis of this binding as well as the binding of immunoglobulins from four and nine month old Lewis rats confirmed the dot blot findings (Table 3).

rat immunoglobulins [3] = experiment: ELISA: antibodies of rat sera to mammalian HSP 60 and its peptides; format: binding
Method: (§2) ELISA: Flat-bottomed 96 well plates (Corning) were coated with mammalian HSP 60 or Mycobacterial HSP 65 (10 μg/ml) in carbonate buffer pH 9.6 overnight at 4° C.
After extensive washing with PBS-Tween 0.05% plates were incubated with blocking buffer containing 1% BSA (Sigma) for 60 min. at RT.
(§3) HSP peptides were attached to plates pre-treated with glutaraldehyde according to Kasprzyk et al.. Shortly, plates were coated with 100 μl/well of 5% w/v of glutaraldehyde in PBS for 1 hour at room temp. Plates were washed thoroughly with PBS and peptides (1 μg/100 μl) were added to each well, incubated overnight at 4° C. Plates were shaken dry and blocked with BSA 1% in PBS.
(§4) Plates coated with either HSP or peptides were washed again and incubated with rat sera diluted 1:100 with PBS-Tween 0.01% for 90 min. at room temp. After re-washing the plates were incubated with Goat anti rat IgG or IgM conjugated to alkaline-phosphatase for 60 min. at room temp. […] Optical density was measured photometrically at 405 nm.
Previous studies have shown that certain bacterial HSP peptides may trigger self HSP reactive T-cells with disease suppressive regulatory potential. To analyze the anti self-HSP antibody repertoire of these rats, the reactivity of Ig's from naive and post AA Lewis rats as well as from naive BN rats to whole mammalian HSP 60 was tested by ELISA.
as §1

Lewis rats [4] = experiment: Anti HSP antibodies in Lewis rats immunized with HSP peptides (ELISA); format: in vivo, rat; settings: 100 μg peptide in PBS, 3 times IP; for Anti HSP Antibodies in Immunized Lewis Rats, Antigen 6: antigen peptide 6; for Anti HSP Antibodies in Immunized Lewis Rats, Antigen 7: antigen peptide 7
Method: as §2, §3, §4
Modulation of AA by mycobacterial and mammalian HSP peltides: HSP 65 derived peptides were tested for their ability to modulate the appearance or severity of AA in Lewis rats. Rats were immunized with 100 μg of each peptide in PBS, three weeks (3W), 2W and 1W before induction of AA by MT. Control rats received PBS. Rats were bled for testing antibody presence before injection of MT and 30 days post MT injection.
To test whether active immunization with bacterial or mammalian HSP peptides that are recognized by protective immunoglobulins can induce protection against AA, Lewis rats were immunized with the mycobacterial peptides 6, 7, 21, 31, 36, 45, 84, that bound antibodies from resistant Lewis rats (“protective” peptides), with some non-reactive mycobacterial HSP 65 peptides: peptide 26 (residues 151-166), 28 (residues 163-178) or peptide 70 (residues 415-430), and with the mammalian peptide 5.
Rats were injected 3 times intraperitoneally (IP), with one week intervals between injections before induction of AA with MT.

Lewis rats [5] = experiment: Modulation of Adjuvant Arthritis by pre-immunization with HSP peptides; format: in vivo, rat; settings: 3 IP injections at one week intervals before AA induction with MT, FIG. 4
[6] = all of the rats immunoglobulins tested
[7] = BN and post-AA Lewis rats, not naive Lewis rats

| Substance | Antibodies to Mycobacterial HSP 65 Peptides (rat immunoglobulins [1]; strain BN-6w) | Antibodies to Mycobacterial HSP 65 Peptides (rat immunoglobulins [1]; strain Lew-4m) | Antibodies to Mycobacterial HSP 65 Peptides (rat immunoglobulins [1]; strain Lew-6w) | Antibodies to Mycobacterial HSP 65 Peptides (rat immunoglobulins [1]; strain Lew-9m) | Antibodies to Mycobacterial HSP 65 Peptides (rat immunoglobulins [1]; strain Lew-Post AA) | reaction with immunoglobulins in Dot-Blot (rat immunoglobulins [2]; [6]) | Antibodies to Mammalian HSP 60 Peptides (rat immunoglobulins [3]; strain BN-6w) | Antibodies to Mammalian HSP 60 Peptides (rat immunoglobulins [3]; strain Lew-4m) | Antibodies to Mammalian HSP 60 Peptides (rat immunoglobulins [3]; strain Lew-6w) | Antibodies to Mammalian HSP 60 Peptides (rat immunoglobulins [3]; strain Lew-9m) | Antibodies to Mammalian HSP 60 Peptides (rat immunoglobulins [3]; strain Lew-Post AA) | Anti HSP Antibodies in Immunized Lewis Rats, Antigen M5 (Lewis rats [4]) | Anti HSP Antibodies in Immunized Lewis Rats, Antigen MT-HSP 65 (Lewis rats [4]) | Anti HSP Antibodies in Immunized Lewis Rats, Antigen 6 (Lewis rats [4]) | Anti HSP Antibodies in Immunized Lewis Rats, Antigen 7 (Lewis rats [4]) | AA disease severity after pre-immunization (Lewis rats [5]) | reaction with immunoglobulins in Dot-Blot (rat immunoglobulins [2]; [7]) | reaction with immunoglobulins in Dot-Blot (rat immunoglobulins [2]; Lewis rats immunized with CFA) |
| --- | --- | --- | --- | --- | --- | --- | --- | --- | --- | --- | --- | --- | --- | --- | --- | --- | --- | --- |
| 45: 16-mer synthetic peptide of Mycobacterial HSP 65, residues 265-280, SEQ ID #14 [Peptide 45] | + (0.16-0.45 = +) | + (0.16-0.45 = +) | − (<O. 15 = −) | + (0.16-0.45 = +) | ++ (0.46-0.75 = ++) |  |  |  |  |  |  |  |  |  |  |  |  |  |
| 63: 16-mer synthetic peptide of Mycobacterial HSP 65, residues 373-388, SEQ ID #16 [Peptide 63] | + (0.16-0.45 = +) | + (0.16-0.45 = +) | + (0.16-0.45 = +) | +++ (>0.75 = +++) | ++ (0.46-0.75 = ++) | reacted |  |  |  |  |  |  |  |  |  |  |  |  |
| HSP 65: Recombinant HSP 65 of Mycobacterium Tuberculosis | +++ (>0.75 = +++) | − (<O. 15 = −) | − (<O. 15 = −) | + (0.16-0.45 = +) | ++ (0.46-0.75 = ++) |  |  |  |  |  |  |  |  |  |  |  |  |  |
| TVIIEQSWGSPKVTKDGVTV (listed as Rattus norvegicus) [Peptide R5, mammalian HSP 60 peptide, residues 61-80] |  |  |  |  |  |  | + (0.16-0.45 = +) | − (<O. 15 = −) | − (<O. 15 = −) | ++ (0.46-0.75 = ++) | +++ (>0.75 = +++) | − (<O. 15 = −) | + (0.16-0.45 = +) | + (0.16-0.45 = +) | − (<O. 15 = −) | significant suppression of disease severity | reacted |  |
| 84: 16-mer synthetic peptide of Mycobacterial HSP 65, residues 499-514, SEQ ID #17 [Peptide 84] | − (<O. 15 = −) | − (<O. 15 = −) | − (<O. 15 = −) | − (<O. 15 = −) | + (0.16-0.45 = +) |  |  |  |  |  |  |  |  |  |  |  |  | reacted |
| M 30: 20-mer synthetic peptide of the mammalian HSP 60, residues 436-455 (IVLGGGCALLRCIPALDSLK) |  |  |  |  |  |  | + (0.16-0.45 = +) | − (<O. 15 = −) | − (<O. 15 = −) | ++ (0.46-0.75 = ++) | ++ (0.46-0.75 = ++) |  |  |  |  |  | reacted |  |
| 40: 16-mer synthetic peptide of Mycobacterial HSP 65, residues 236-251, SEQ ID #13 [Peptide 40] | ++ (0.46-0.75 = ++) | + (0.16-0.45 = +) | + (0.16-0.45 = +) | ++ (0.46-0.75 = ++) | ++ (0.46-0.75 = ++) | reacted |  |  |  |  |  |  |  |  |  |  |  |  |
| 31: 16-mer synthetic peptide of Mycobacterial HSP 65, residues 181-196, SEQ ID #11 [Peptide 31] | + (0.16-0.45 = +) | − (<O. 15 = −) | − (<O. 15 = −) | ++ (0.46-0.75 = ++) | ++ (0.46-0.75 = ++) |  |  |  |  |  |  |  |  |  |  |  |  |  |
| VVLEKKWGAPTITNDG [Peptide 7] | + (0.16-0.45 = +) | − (<O. 15 = −) | − (<O. 15 = −) | + (0.16-0.45 = +) | + (0.16-0.45 = +) |  |  |  |  |  |  | − (<O. 15 = −) | + (0.16-0.45 = +) | + (0.16-0.45 = +) | − (<O. 15 = −) | significant suppression of disease severity |  |  |
| 21: 16-mer synthetic peptide of Mycobacterial HSP 65, residues 121-136, SEQ ID #10 [Peptide 21] | − (<O. 15 = −) | − (<O. 15 = −) | − (<O. 15 = −) | − (<O. 15 = −) | + (0.16-0.45 = +) |  |  |  |  |  |  |  |  |  |  |  |  | reacted |
| 36: 16-mer synthetic peptide of Mycobacterial HSP 65, residues 211-226, SEQ ID #12 [Peptide 36] | ++ (0.46-0.75 = ++) | + (0.16-0.45 = +) | − (<O. 15 = −) | + (0.16-0.45 = +) | +++ (>0.75 = +++) |  |  |  |  |  |  |  |  |  |  |  |  |  |
| 59: 16-mer synthetic peptide of Mycobacterial HSP 65, residues 349-364, SEQ ID #15 [Peptide 59] | + (0.16-0.45 = +) | − (<O. 15 = −) | − (<O. 15 = −) | − (<O. 15 = −) | +++ (>0.75 = +++) |  |  |  |  |  |  |  |  |  |  |  |  |  |
